Data published in patent US20260232679A1, “PHARMACEUTICAL COMPOSITION FOR TREATING TUMORS” (Eisai R&D Management Co., Ltd., priority 2023, published 2026).

Assays:
[1] = test system: human colorectal cancer cell line Colo205 cells; assay: Antitumor effect in transplantation model nude mouse with human colorectal cancer cell line Colo205 cells (Example 1); type: in vivo; conditions: 14 days; for enhancement in antitumor effect (tumor volume) by combined use with Trametinib: combined with Trametinib 0.3 mg/kg p.o., formula (I) 12.5 or 25 mg/kg p.o., ICG001 100 mg/kg i.p., FIGS. 1-3
Protocol: Human colorectal cancer-derived cell line Colo205 cells (supplied by ATCC) were suspended in Hanks' Balanced Salt Solution (HBSS) (manufactured by FUJIFILM Wako Chemicals) at 5× 10^7 cells/mL. 0.1 mL of the obtained cell suspension was transplanted subcutaneously to a right frank of 6-week nude mice (CAnN.Cg-Foxn1 nu/CrlCrlj, manufactured by Charles River Laboratories Japan, Inc.). Ten days after the transplantation, a major axis and a minor axis of a tumor generated in each mouse were measured with a digimatic caliper (manufactured by Mitutoyo Corp.), and the mice were divided into groups each including six mice such that an average tumor volume was approximately equal. The tumor volume was calculated according to the following formula.
From ten days after the transplantation, the compound represented by formula (I) (12.5 mg/kg or 25 mg/kg, once a day, 14 days, orally administered), Trametinib (0.3 mg/kg, once a day, 14 days, orally administered), and ICG001 (100 mg/kg, once a day, 14 days, intraperitoneally administered) were administered singly or in combination to the mice in a single administration group or a combined administration group. Note that any one of the above agents was not administered to a control group.
Note that, at the time of administration, the compound represented by formula (I) was dissolved in 0.1 M hydrochloric acid at 1.25 mg/mL or 2.50 mg/mL, Trametinib (manufactured by Amadis Chemical) was dissolved in distilled water (pH 8.0) (manufactured by Otsuka Pharmaceutical Co., Ltd.) containing 0.5 w/v % of hydroxypropyl methyl cellulose (manufactured by FUJIFILM Wako Chemicals) and 0.2 w/v % of Tween80 (manufactured by Sigma) at 0.03 mg/mL, and ICG001 (manufactured by WuXi App Tec) was dissolved in physiological saline (manufactured by Otsuka Pharmaceutical Co., Ltd.) containing 3.5 w/v % of dimethylsulfoxide (manufactured by Wako Pure Chemical Industries, Ltd.) and 6.5 w/v % of Tween80 at 10 mg/mL.
The administration start day was defined as the first day, and a major axis and a minor axis of a tumor generated in each mouse were measured on the fifth day, the eighth day, the twelfth day, and the fifteenth day, and a tumor volume was calculated by a similar method to the above-described method. FIG. 1 illustrates a transition of the tumor volume in a case where 12.5 mg/kg of the compound represented by formula (I) and 0.3 mg/kg of Trametinib were administered singly or in combination. FIG. 2 illustrates a transition of the tumor volume in a case where 25.0 mg/kg of the compound represented by formula (I) and 0.3 mg/kg of Trametinib were administered singly or in combination. FIG. 3 illustrates a transition of the tumor volume in a case where 100 mg/kg of ICG001 and 0.3 mg/kg of Trametinib were administered singly or in combination. […]

[2] = test system: human colorectal cancer cell line HT-29 (BRAF V600E-mutant); conditions: HT-29 subcutaneous mouse model, cited from earlier work
[3] = test system: patient-derived colorectal cancer organoid; conditions: PDX model mouse, ICG001 + Trametinib; cited from earlier work
[4] = test system: human non-small cell lung cancer cell line NCI-H358 cells; assay: Antitumor effect in transplantation model nude mouse with human non-small cell lung cancer cell line NCI-H358 cells (Example 4); type: in vivo; conditions: p.o. once a day, 14 days
Protocol: (§1) The tumor volume was calculated according to the following formula.

[5] = test system: human melanoma cell line A375 cells; assay: Antitumor effect in transplantation model nude mouse with human melanoma cell line A375 cells (Example 5); type: in vivo; conditions: p.o. once a day, 14 days
Protocol: as §1

[6] = test system: human colorectal cancer cell line Colo205 cells; assay: Antitumor effect in transplantation model nude mouse with human colorectal cancer cell line Colo205 cells (Example 3); type: in vivo; conditions: p.o. once a day, 14 days
Protocol: as §1

[7] = test system: human colorectal cancer cell line SW1463 cells; assay: Antitumor effect in transplantation model nude mouse with human colorectal cancer cell line SW1463 cells (Example 2); type: in vivo; conditions: formula (I) 25.0 mg/kg + Trametinib 0.3 mg/kg + Adagrasib 10 mg/kg, p.o. once a day, 14 days
Protocol: as §1

[8] = formula (I) 25.0 mg/kg + Trametinib 0.3 mg/kg + Adagrasib 3 mg/kg, FIG. 12
[9] = formula (I) 25 mg/kg + Trametinib 0.3 mg/kg, FIG. 10
[10] = formula (I) 25 mg/kg + Trametinib 0.3 mg/kg, FIG. 13
[11] = formula (I) 25 mg/kg + Trametinib 0.3 mg/kg, FIG. 7

Structure (SMILES): O=C1[C@H](Cc2ccc(O)cc2)N2C(=O)CCN(C(=O)NCc3ccccc3)[C@H]2CN1Cc1cccc2ccccc12 [ICG001]
- enhancement in antitumor effect (tumor volume) by combined use with Trametinib ([1]; once a day): remarkable enhancement in antitumor effect was not observed
- antitumor effect, in combination with both Vemurafenib and Trametinib compared to the single administration ([2]; ICG001 + Vemurafenib + Trametinib): antitumor effect is enhanced
- antitumor effect, in combination with Vemurafenib compared to the single administration ([2]; ICG001 + Vemurafenib): antitumor effect is enhanced
- antitumor effect, in combination with Trametinib compared to the single administration [3]: antitumor effect is enhanced

Structure (SMILES): C=CCN1CC(=O)N2[C@@H](Cc3ccc(O)cc3F)C(=O)N(Cc3cccc(N4CC(N5CCN(CC)CC5)C4)n3)C[C@@H]2N1C(=O)NCc1ccccc1 [compound represented by formula (I), (6S,9aS)—N-benzyl-8-({6-[3-(4-ethylpiperazin-1-yl)azetidin-1-yl]pyridin-2-yl}methyl)-6-(2-fluoro-4-hydroxybenzyl)-4,7-dioxo-2-(prop-2-en-1-yl)hexahydro-2H-pyrazino[2,1-c][1,2,4]triazine-1(6H)-carboxamide]
- enhancement in antitumor effect (tumor volume) by combined use with Trametinib ([1]; once a day): remarkable enhancement in antitumor effect
- tumor proliferation, combined use with Trametinib compared with formula (I) or Trametinib administered singly ([1]; formula (I) 12.5 or 25 mg/kg p.o. + Trametinib 0.3 mg/kg p.o., once a day, FIGS. 1 and 2): inhibited tumor proliferation in a statistically significant manner
- tumor proliferation, combined administration with Trametinib compared with combined administration of ICG001 and Trametinib ([1]; formula (I) 12.5 or 25 mg/kg p.o. + Trametinib 0.3 mg/kg vs ICG001 100 mg/kg i.p. + Trametinib 0.3 mg/kg, FIG. 4): inhibited tumor proliferation in a statistically significant manner
- tumor proliferation, three-agent combination with Trametinib and Adagrasib compared with formula (I) singly or Trametinib + Adagrasib ([4]; formula (I) 25.0 mg/kg + Trametinib 0.3 mg/kg + Adagrasib 3 mg/kg, FIG. 11): inhibited tumor proliferation in a statistically significant manner
- antitumor effect, three-agent combination with Trametinib and Adagrasib compared with two-agent formula (I) + Trametinib [4, 8]: enhancement tendency
- tumor proliferation, three-agent combination with Trametinib and Adagrasib compared with Adagrasib singly [4, 8]: inhibited tumor proliferation in a statistically significant manner
- antitumor effect, combined use with Trametinib compared with formula (I) or Trametinib administered singly [4, 9]: tendency to enhance the antitumor effect
- enhancement in antitumor effect (tumor volume) by combined use with Trametinib [4, 9]: remarkable enhancement in antitumor effect
- tumor proliferation, three-agent combination with Trametinib and Dabrafenib compared with formula (I) singly or Trametinib + Dabrafenib ([5]; formula (I) 25.0 mg/kg + Trametinib 0.3 mg/kg + Dabrafenib 30 mg/kg, FIG. 14): inhibited tumor proliferation in a statistically significant manner
- tumor proliferation, three-agent combination with Trametinib and Dabrafenib compared with Dabrafenib singly or formula (I) + Trametinib ([5]; formula (I) 25.0 mg/kg + Trametinib 0.3 mg/kg + Dabrafenib 30 mg/kg, FIG. 15): inhibited tumor proliferation in a statistically significant manner
- enhancement in antitumor effect (tumor volume) by combined use with Trametinib [5, 10]: remarkable enhancement in antitumor effect
- tumor proliferation, combined use with Trametinib compared with formula (I) or Trametinib administered singly [5, 10]: inhibited tumor proliferation in a statistically significant manner
- tumor proliferation, three-agent combination with Trametinib and Dabrafenib compared with two-agent Trametinib + Dabrafenib ([6]; formula (I) 25.0 mg/kg + Trametinib 0.3 mg/kg + Dabrafenib 30 mg/kg, FIG. 8): inhibited tumor proliferation in a statistically significant manner
- tumor proliferation, three-agent combination with Trametinib and Dabrafenib compared with two-agent formula (I) + Trametinib ([6]; formula (I) 25.0 mg/kg + Trametinib 0.3 mg/kg + Dabrafenib 30 mg/kg, FIG. 9): inhibited tumor proliferation in a statistically significant manner
- enhancement in antitumor effect (tumor volume) by combined use with Trametinib [6, 11]: remarkable enhancement in antitumor effect
- tumor proliferation, combined use with Trametinib compared with formula (I) or Trametinib administered singly [6, 11]: inhibited tumor proliferation in a statistically significant manner
- tumor proliferation, three-agent combination with Trametinib and Adagrasib compared with formula (I) singly or Trametinib + Adagrasib ([7]; FIG. 5): inhibited tumor proliferation in a statistically significant manner
- tumor proliferation, three-agent combination with Trametinib and Adagrasib compared with Adagrasib singly or formula (I) + Trametinib ([7]; FIG. 6): inhibited tumor proliferation in a statistically significant manner
